± gives the expanded uncertainty stated by the source.
Test: activity coefficient (dimensionless); of the first substance listed, at infinite dilution; xn = mol fraction of the nth substance listed
Conditions: 298 K; Liquid; Chromatography; x1 = 0

| Structure (SMILES) | activity coefficient |
| --- | --- |
| c1ccccc1 [benzene] + OCCO | 32 ± 6 |
| Brc1ccccc1 [bromobenzene] + OCCO | 45 ± 10 |
| Clc1ccccc1 [chlorobenzene] + OCCO | 40 ± 8 |
| Fc1ccccc1 [fluorobenzene] + OCCO | 32 ± 10 |
| Ic1ccccc1 [iodobenzene] + OCCO | 42 ± 10 |
| c1ccc2ccccc2c1 [naphthalene] + OCCO | 238 ± 51 |
| Cc1ccccc1 [toluene] + OCCO | 93 ± 12 |
